The assay has as its target T1, human glucagon receptor (Homo sapiens, UniProt P47871).
T1 construct: expressed in transfected cells; host or cells: BHK cells (parent BHK570, CRE luciferase clone BHK/KZ10-20-48), clone pLJ6'-4-25
In words: Glucagon receptor binding, 125I-glucagon displacement SPA on isolated membranes. The note with it: displacement of 125I-glucagon from membranes; read-out: IC50 GlucR. As for the experimental part: The purpose of this assay was to test the in vitro receptor binding activity (i.e. affinity) of the glucagon derivatives of the invention. The receptor binding activity is a measure of affinity of a derivative for the human glucagon receptor.
The receptor binding of each compound to the human glucagon receptor was measured in a displacement binding assay. In this type of assay a labelled ligand (in this case 125I-glucagon) is bound to the receptor. Each derivative was added in a series of concentrations to isolated membranes containing the human glucagon receptor and displacement of the labelled ligand is monitored. The receptor binding was reported as the concentration at which half of the labelled ligand is displaced from the receptor, the IC50 value.
In order to test the binding of the derivatives to albumin, the assay may be performed in a very low concentration of serum albumin (max. 0.001% final assay concentration) as well as in the presence of a higher concentration of serum albumin (0.2% final assay concentration). An increase of the IC50 value, in the presence of serum albumin indicates an affinity to serum albumin and represents a method to predict a protracted pharmacokinetic profile of the test substance in animal models.
The following chemicals were used in the assay: DMEM w Glutamax (Gibco 61965-026), Pen/strep (Invitrogen 15140-122), G418 (Invitrogen 10131-027), Versene (Gibco 15040), 1 M Hepes (Gibco 15630), PBS (Invitrogen 14190-094), fetal calf serum (Invitrogen 16140-071), MgCl2 (Merck 1.05832.1000), EDTA (Invitrogen 15575-038), CaCl2 (Sigma, C5080), Tween 20 (Amresco 0850C335), ovalbumin (Sigma A5503), SPA particles (wheat germ agglutinin (WGA) SPA beads, Perkin Elmer RPNQ0001), [125I]-glucagon (produced in-house), OptiPlate™-96 (Packard 6005290).
HME buffer consisted of 25 mM HEPES, 2 mM MgCl2 and 1 mM EDTA, and pH was adjusted to 7.4. Assay buffer consisted of 50 mM HEPES supplemented with 5 mM MgCl2, 1 mM CaCl2, 0.02% Tween 20 and 0.1% Ovalbumin, and pH was adjusted to 7.4.
The cells used in this assay (clone BHK hGCGR A3*25) were BHK cells stable transfected with an expression plasmid containing the cDNA encoding the human glucagon receptor.
The cells were grown at 5% CO2 in DMEM, 10% fetal calf serum, 1% Pen/Strep (Penicillin/Streptomycin) and 1.0 mg/ml of the selection marker G418. To make a membrane preparation the cells were grown to approximately 80% confluence. The cells were washed twice in phosphate-buffered saline and harvested. The cells were pelleted using a brief centrifugation and the cell pellet was kept on ice. Lyse the cells by adding approx. 5 ml HME buffer, mix by pipetting and snap freeze in liquid nitrogen. Thaw quickly and add HME buffer to 10 ml. The cell pellet was homogenised with an ULTRA-THURRAX dispersing instrument for 20-30 sec. The homogenate was centrifuged at 20.000×G, 4° C. for 10 min. The pellet was re-suspended (homogenised) in 1-2 ml HME buffer. The protein concentration was determined. The membranes were aliquoted and snap-frozen in liquid nitrogen and stored at minus 80° C.
1. For the receptor binding assay, 50 μl of the assay buffer was added to each well of an assay plate.
2. Test compounds were serially diluted to give the following concentrations: 8×10EE-7 M, 8×10EE-8 M, 8×10EE-9 M, 8×10EE-10 M, 8×10EE-11 M, 8×10EE-12 M and 8×10EE-13 M. Twenty-five μl were added to appropriate wells in the assay plate.
3. Cell membrane aliquots were thawed and diluted to their working concentration. Fifty μl were added to each well in the assay plate.
4. WGA SPA beads were suspended in assay buffer at 20 mg/ml. The suspension was diluted to 10 mg/ml in assay buffer just prior to addition to the assay plate. Fifty μl were added to each well in the assay plate.
5. The incubation was started by adding 25 μl of 480 pM solution of [125I]-glucagon to each well of the assay plate. A 25 μl aliquot was reserved for measuring total counts/well.
6. The assay plate was incubated for 2 h at 25° C.
7. […]
Background: Displacement assays read how much labelled ligand stays bound in the presence of the test substance.

Numbered stars: 1 amine (or outer) side, 2 acyl side, 3 side chain; on linkers, the order of the positions; unused ones are H or OH. Bridge positions count the residues as written; N and C are the ends. Square brackets hold non-standard residues; d marks the D form. Side chains are listed from the residue outwards. Peptide text beside a SMILES is read from it. I, II: the chains in the order shown. * marks the point of attachment. C18 diacid = O=C(O)CCCCCCCCCCCCCCCCC(=O)*; γGlu = O=C(O)[C@H](CCC(=O)[*:2])N[*:1]; Ac4c = NC1(C(=O)O)CCC1; AEEA = NCCOCCOCC(=O)O; Aib = CC(C)(N)C(=O)O

T1 sequence (P47871 26-477): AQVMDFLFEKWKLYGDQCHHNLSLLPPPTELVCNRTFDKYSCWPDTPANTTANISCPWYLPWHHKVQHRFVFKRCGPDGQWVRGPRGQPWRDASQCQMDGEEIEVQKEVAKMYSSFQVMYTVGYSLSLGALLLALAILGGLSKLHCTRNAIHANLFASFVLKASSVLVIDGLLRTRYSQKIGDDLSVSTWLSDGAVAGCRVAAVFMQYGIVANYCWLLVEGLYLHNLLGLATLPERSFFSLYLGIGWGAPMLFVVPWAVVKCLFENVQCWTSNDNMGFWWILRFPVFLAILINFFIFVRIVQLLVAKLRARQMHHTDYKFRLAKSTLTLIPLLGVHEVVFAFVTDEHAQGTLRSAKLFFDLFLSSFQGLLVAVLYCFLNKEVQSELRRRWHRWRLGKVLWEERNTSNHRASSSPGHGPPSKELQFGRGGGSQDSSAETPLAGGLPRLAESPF

`CC(C)C[C@H](NC(=O)[C@H](CC(C)C)NC(=O)[C@H](Cc1c[nH]c2ccccc12)NC(=O)[C@H](CCC(N)=O)NC(=O)[C@@H](NC(=O)[C@H](Cc1ccccc1)NC(=O)[C@H](CCC(=O)O)NC(=O)[C@H](CCC(N)=O)NC(=O)[C@H](C)NC(=O)[C@H](C)NC(=O)[C@H](CCCCN)NC(=O)[C@H](CO)NC(=O)[C@H](CC(=O)O)NC(=O)[C@H](CC(C)C)NC(=O)[C@H](Cc1ccc(O)cc1)NC(=O)[C@H](CCCCN)NC(=O)[C@H](CO)NC(=O)[C@H](CC(C)C)NC(=O)[C@H](CC(=O)O)NC(=O)[C@H](CO)NC(=O)[C@@H](NC(=O)[C@H](Cc1ccccc1)NC(=O)[C@@H](NC(=O)CNC(=O)[C@H](CCC(N)=O)NC(=O)C(C)(C)NC(=O)[C@@H](N)Cc1c[nH]cn1)[C@@H](C)O)[C@@H](C)O)C(C)C)C(=O)N[C@@H](CC(N)=O)C(=O)N[C@@H](CCCCNC(=O)CC[C@H](NC(=O)CC[C@H](NC(=O)COCCOCCNC(=O)COCCOCCNC(=O)CC[C@H](NC(=O)CCCCCCCCCCCCCCCCC(=O)O)C(=O)O)C(=O)O)C(=O)O)C(N)=O` [Example 8, N^ε29-[(4S)-4-carboxy-4-[[(4S)-4-carboxy-4-[[2-[2-[2-[[2-[2-[2-[[(4S)-4-carboxy-4-(17-carboxyheptadecanoylamino)butanoyl]amino]ethoxy]ethoxy]acetyl]amino]ethoxy]ethoxy]acetyl]amino]butanoyl]amino]butanoyl]-[Aib2,Leu10,Lys17,Ala18,Glu21,Leu27,Lys29]-Glucagon amide] (H-H[Aib]QGTFTSDLSKYLDSKAAQEFVQWLLNK([γGlu-γGlu-AEEA-AEEA-γGlu-C18 diacid])-NH2; N-terminus assumed): the IC50 – broadly, the midpoint of a concentration-inhibition curve – is 6.7 nM.

Regarding `CC(C)C[C@H](NC(=O)[C@H](Cc1ccc(O)cc1)NC(=O)[C@H](CCCCN)NC(=O)[C@H](CO)NC(=O)[C@H](CC(C)C)NC(=O)[C@H](CC(=O)O)NC(=O)[C@H](CO)NC(=O)[C@@H](NC(=O)[C@H](Cc1ccccc1)NC(=O)[C@@H](NC(=O)CNC(=O)[C@H](CCC(N)=O)NC(=O)C(C)(C)NC(=O)[C@@H](N)Cc1c[nH]cn1)[C@@H](C)O)[C@@H](C)O)C(=O)N[C@@H](CC(=O)O)C(=O)N[C@@H](CCCCNC(=O)CC[C@H](NC(=O)CC[C@H](NC(=O)COCCOCCNC(=O)COCCOCCNC(=O)CC[C@H](NC(=O)CCCCCCCCCCCCCCCCC(=O)O)C(=O)O)C(=O)O)C(=O)O)C(=O)N[C@@H](CCCNC(=N)N)C(=O)N[C@@H](CCCNC(=N)N)C(=O)N[C@@H](C)C(=O)N[C@@H](CCCNC(=N)N)C(=O)N[C@@H](CCC(=O)O)C(=O)N[C@@H](Cc1ccccc1)C(=O)N[C@H](C(=O)N[C@@H](CCC(N)=O)C(=O)N[C@@H](Cc1c[nH]c2ccccc12)C(=O)N[C@@H](CC(C)C)C(=O)N[C@@H](CC(C)C)C(=O)N[C@@H](CC(N)=O)C(=O)N[C@H](C(N)=O)[C@@H](C)O)C(C)C` [Example 10, N^ε16-[(4S)-4-carboxy-4-[[(4S)-4-carboxy-4-[[2-[2-[2-[[2-[2-[2-[[(4S)-4-carboxy-4-(17-carboxyheptadecanoylamino)butanoyl]amino]ethoxy]ethoxy]acetyl]amino]ethoxy]ethoxy]acetyl]amino]butanoyl]amino]butanoyl]-[Aib2,Leu10,Lys16,Arg20,Glu21,Leu27]-Glucagon amide] (H-H[Aib]QGTFTSDLSKYLDK([γGlu-γGlu-AEEA-AEEA-γGlu-C18 diacid])RRAREFVQWLLNT-NH2; N-terminus assumed), the IC50 turned out to be 1.2 nM.

Consider `CC(C)C[C@H](NC(=O)[C@H](Cc1ccc(O)cc1)NC(=O)[C@H](CCCCN)NC(=O)[C@H](CO)NC(=O)[C@H](CC(C)C)NC(=O)[C@H](CC(=O)O)NC(=O)[C@H](CO)NC(=O)[C@@H](NC(=O)[C@H](Cc1ccccc1)NC(=O)[C@@H](NC(=O)CNC(=O)[C@H](CCC(N)=O)NC(=O)C1(NC(=O)[C@@H](N)Cc2c[nH]cn2)CCC1)[C@@H](C)O)[C@@H](C)O)C(=O)N[C@@H](CCC(=O)O)C(=O)N[C@@H](CCC(=O)O)C(=O)N[C@@H](CCCNC(=N)N)C(=O)N[C@@H](CCCNC(=N)N)C(=O)N[C@@H](C)C(=O)N[C@@H](CCCNC(=N)N)C(=O)N[C@@H](CC(=O)O)C(=O)N[C@@H](Cc1ccccc1)C(=O)N[C@H](C(=O)N[C@@H](CCC(N)=O)C(=O)N[C@@H](Cc1c[nH]c2ccccc12)C(=O)N[C@@H](CC(C)C)C(=O)N[C@@H](CC(C)C)C(=O)N[C@@H](CCCCNC(=O)CNC(=O)[C@H](CO)NC(=O)[C@H](CCC(=O)O)NC(=O)CNC(=O)[C@H](CO)NC(=O)CC[C@H](NC(=O)CC[C@H](NC(=O)CCCCCCCCCCCCCCCCC(=O)O)C(=O)O)C(=O)O)C(=O)N[C@H](C(N)=O)[C@@H](C)O)C(C)C` [Example 16, N^ε28-[2-[[(2S)-2-[[(2S)-4-carboxy-2-[[2-[[(2S)-2-[[(4S)-4-carboxy-4-[[(4S)-4-carboxy-4-(17-carboxyheptadecanoylamino)butanoyl]amino]butanoyl]amino]-3-hydroxypropanoyl]amino]acetyl]amino]butanoyl]amino]-3-hydroxypropanoyl]amino]acetyl]-[Acb2,Leu10,Glu15,Glu16,Arg20,Leu27,Lys28]-Glucagon amide] (I: H-H[Ac4c]QGTFTSDLSKYLEERRARDFVQWLLKT-NH2 / II: {C18 diacid-γGlu-γGlu}-SGESG; amide I:28-II:C; N-terminus assumed), for which the IC50 is 3.9 nM.

Turning to `CC(C)C[C@H](NC(=O)[C@H](Cc1c[nH]c2ccccc12)NC(=O)[C@H](C)NC(=O)[C@@H](NC(=O)[C@H](Cc1ccccc1)NC(=O)[C@H](CCC(=O)O)NC(=O)[C@H](CCCNC(=N)N)NC(=O)[C@H](C)NC(=O)[C@H](CCCNC(=N)N)NC(=O)[C@H](CCCNC(=N)N)NC(=O)[C@H](CCCCNC(=O)CC[C@H](NC(=O)COCCOCCNC(=O)COCCOCCNC(=O)CC[C@H](NC(=O)CC[C@H](NC(=O)CCCCCCCCCCCCCCCCC(=O)O)C(=O)O)C(=O)O)C(=O)O)NC(=O)[C@H](CC(=O)O)NC(=O)[C@H](CC(C)C)NC(=O)[C@H](Cc1ccc(O)cc1)NC(=O)[C@H](CCCCN)NC(=O)[C@H](CO)NC(=O)[C@H](CC(C)C)NC(=O)[C@H](CC(=O)O)NC(=O)[C@H](CO)NC(=O)[C@@H](NC(=O)[C@H](Cc1ccccc1)NC(=O)[C@@H](NC(=O)CNC(=O)[C@H](CCC(N)=O)NC(=O)C(C)(C)NC(=O)[C@@H](N)Cc1c[nH]cn1)[C@@H](C)O)[C@@H](C)O)C(C)C)C(=O)N[C@@H](CC(C)C)C(=O)N[C@@H](CC(N)=O)C(=O)N[C@H](C(N)=O)[C@@H](C)O` [Example 19, N^ε29-[(4S)-4-carboxy-4-[[2-[2-[2-[[2-[2-[2-[[(4S)-4-carboxy-4-[[(4S)-4-carboxy-4-(17-carboxyheptadecanoylamino)butanoyl]amino]butanoyl]amino]ethoxy]ethoxy]acetyl]amino]ethoxy]ethoxy]acetyl]amino]butanoyl]-[Aib2,Leu10,Lys16,Arg20,Glu21,Ala24,Leu27]-Glucagon amide] (H-H[Aib]QGTFTSDLSKYLDK([γGlu-AEEA-AEEA-γGlu-γGlu-C18 diacid])RRAREFVAWLLNT-NH2; N-terminus assumed), the IC50 is 8.5 nM.

(Values after patent US9474790B2, “Stable, protracted GLP-1/glucagon receptor co-agonists for medical use” (Novo Nordisk A/S, priority 2013, dated 2016).)
